Results as given in patent publication US4091006A, “Esters of 3-hydroxyindone compounds” (priority 1975, dated 1978).

Columns and labels:
[1] = test system: Perennial rye grass, crabgrass, red root pigweed, mustard; experiment: Preliminary Herbicide Seed Germination Test; conditions: each rated 1 (no injury) to 5 (no seedlings emerged)
[2] = test system: egg of the two-spotted mite; experiment: Mite Ovicide Test; type: in vivo, Tetranychus urticae (Koch); parameters: key to Mite Ova rating: 1: no mortality; 3: an approximately 50% mortality; 5: 100% mortality; conditions: for Mite Ova rating: spray on eggs, 4 days
Text: (§1) The test procedures were as follows:
The plants were allowed to dry thoroughly.
(§2) Compositions were rated on the basis of percent kill with a rating of 1 indicating no mortality; 3 signifying an approximately 50% mortality and 5 indicating 100% mortality at the indicated dosage.

[3] = test system: adults and nymphal stages of the two-spotted mite; experiment: Mite Foliage Spray Test; type: in vivo, Tetranychus urticae (Koch); parameters: key: 1: no mortality; 3: an approximately 50% mortality; 5: 100% mortality; conditions: 4 days
Text: as §1, §2

[4] = rating/maximum 20: 100 ppm only, four species
[5] = rating/maximum 40: 100 and 1000 ppm, four species, 10-12 days
[6] = rating/maximum 15: 100 ppm only, crabgrass omitted
[7] = rating/maximum 30: 100 and 1000 ppm, crabgrass omitted

| Compound | Herbicide (total preemergence rating) [1, 4] | Mite Ova rating [2] | Mite Adult rating [3] | Herbicide (total preemergence rating) [1, 5] | Herbicide (total preemergence rating) [1, 6] | Herbicide (total preemergence rating) [1, 7] | Mite ova kill ([2]; 500 ppm) |
| --- | --- | --- | --- | --- | --- | --- | --- |
| Cc1cc(C)c(NC(=O)OC2=C(c3c(C)cc(C)cc3C)C(=O)c3ccccc32)c(C)c1 [2-(2',4',6'-Trimethylphenyl)-3-(N-(2,4,6-Trimethylphenyl)-carbamoyloxy)indone] | 4/20 | 5 (100% mortality) | 5 (100% mortality) |  |  |  |  |
| CC(C)c1ccc(C2=C(OC(=O)C(C)(C)C)c3ccccc3C2=O)cc1 [2-(4'-isopropylphenyl)-3-(pivaloyloxy)indone] | 4/20 | 1 | 1 |  |  |  |  |
| CCCCC(CC)C(=O)OC1=C(c2ccccc2OC)C(=O)c2ccccc21 (stereo not drawn) [3-(2-Ethylhexanoyloxy)-2-(2'-methoxyphenyl-indone] | 4/20 | 1 | 1 |  |  |  |  |
| Cc1cc(C)c(C2=C(OC(=O)c3c(Cl)ccc(Cl)c3Cl)c3ccccc3C2=O)c(C)c1 [3-(2,3,6-Trichlorobenzoyloxy)-2-(2',4',6'-trimethylphenyl)indone] |  | 3 (an approximately 50% mortality) | 1 | 21/40 |  |  |  |
| CCCCCCCCCCCCCCCCCC(=O)OC1=C(c2ccccc2)C(=O)c2ccccc21 [2-Phenyl-3-(stearoyloxy)indone] | 4/20 | 1 | 1 |  |  |  |  |
| Cc1cc(C)c(C(=O)OC2=C(c3c(C)cc(C)cc3C)C(=O)c3ccccc32)c(C)c1 [3-(2,4,6-Trimethylbenzoyloxy)-2-(2',4',6'-trimethylphenyl)indone] |  | 1 | 1 |  | 10/15 |  |  |
| CCCC(C)C(=O)OC1=C(c2ccc(C)cc2C)C(=O)c2ccccc21 (stereo not drawn) [2-(2',4'-Dimethylphenyl)-3-(2-methylpentanoyloxy)indone] | 14/20 | 5 (100% mortality) | 3 (an approximately 50% mortality) |  |  |  |  |
| Cc1cc(C)c(C2=C(OC(=O)N(C)c3ccccc3)c3ccccc3C2=O)c(C)c1 [2-(2',4',6'-Trimethylphenyl)-3-(N-methyl-N-phenylcarbamoyloxy)indone] | 10/20 | 3 (an approximately 50% mortality) | 1 |  |  |  |  |
| CCCCC(=O)OC1=C(c2c(C)cc(C)cc2C)C(=O)c2ccccc21 [2-(2',4',6'-Trimethylphenyl)-3-(pentanoyloxy)indone] |  | 5 (100% mortality) | 5 (100% mortality) |  | 15/15 |  |  |
| CCCCCCCCCCCCCCCC(=O)OC1=C(c2ccc(C(C)C)cc2)C(=O)c2ccccc21 [2-(4'-isopropylphenyl)-3-(palmitoyloxy)indone] | 4/20 | 1 | 1 |  |  |  |  |
| CCCCC(CC)C(=O)OC1=C(c2ccccc2C)C(=O)c2ccccc21 (stereo not drawn) [3-(2-Ethylhexanoyloxy)-2-(2'-methylphenyl)indone] | 4/20 | 5 (100% mortality) | 3 (an approximately 50% mortality) |  |  |  |  |
| O=C(OC1=C(c2ccccc2)C(=O)c2ccccc21)c1ccccc1 [2-Phenyl-3-(benzoyloxy)indone] | 4/20 | 1 | 1 |  |  |  |  |
| Cc1ccc(C(=O)OC2=C(c3c(Cl)cccc3Cl)C(=O)c3ccccc32)cc1 [3-(4-Methylbenzoyloxy)-2-(2',6'-dichlorophenyl)indone] |  | 5 (100% mortality) | 5 (100% mortality) |  |  | 22/30 |  |
| CC(C)(C)C(=O)OC1=C(c2ccccc2Cl)C(=O)c2ccccc21 [2-(2'-Chlorophenyl)-3-(pivaloyloxy)indone] |  | 5 (100% mortality) | 5 (100% mortality) | 18/40 |  |  |  |
| CSCC(=O)OC1=C(c2c(C)cc(C)cc2C)C(=O)c2ccccc21 [2-(2',4',6'-Trimethylphenyl)-3-(methylthioacetoxy)indone] | 19/20 | 5 (100% mortality) | 5 (100% mortality) |  |  |  |  |
| CCc1cccc(CC)c1C1=C(OC(=O)C(C)(C)C)c2ccccc2C1=O [2-(2',6'-Diethylphenyl)-3-(pivaloyloxy)indone] |  | 5 (100% mortality) | 5 (100% mortality) |  | 12/15 |  |  |
| CCCCC(CC)C(=O)OC1=C(c2ccccc2F)C(=O)c2ccccc21 (stereo not drawn) [3-(2-Ethylhexanoyloxy)-2-(2'-fluorophenyl)indone] | 4/20 | 5 (100% mortality) | 3 (an approximately 50% mortality) |  |  |  |  |

| Compound | Herbicide (total preemergence rating) [1, 4] | Mite Ova rating [2] | Mite Adult rating [3] | Herbicide (total preemergence rating) [1, 5] | Herbicide (total preemergence rating) [1, 6] | Herbicide (total preemergence rating) [1, 7] | Mite ova kill ([2]; 500 ppm) |
| --- | --- | --- | --- | --- | --- | --- | --- |
| O=C(OC1=C(c2c(Cl)cccc2Cl)C(=O)c2ccccc21)c1ccc(Cl)cc1 [3-(4-Chlorobenzoyloxy)-2-(2',6'-dichlorophenyl)indone] |  | 5 (100% mortality) | 5 (100% mortality) |  |  | 23/30 |  |
| Cc1cc(C)c(C2=C(OC(=O)c3ccc(Cl)c(Cl)c3)c3ccccc3C2=O)c(C)c1 [3-(3,4-Dichlorobenzoyloxy)-2-(2',4',6'-trimethylphenyl)indone] |  | 5 (100% mortality) | 5 (100% mortality) | 32/40 |  |  |  |
| CCCCCCCCOC(=O)OC1=C(c2c(C)cc(C)cc2C)C(=O)c2ccccc21 [2-(2',4',6'-Trimethylphenyl)-3-(octyloxycarbonyloxy)indone] | 16/20 | 5 (100% mortality) | 5 (100% mortality) |  |  |  |  |
| Cc1ccc(C(=O)OC2=C(c3c(Cl)cccc3Cl)C(=O)c3ccccc32)c(C)c1 [3-(2,4-Dimethylbenzoyloxy)-2-(2',6'-dichlorophenyl)indone] | 5/20 | 3 (an approximately 50% mortality) | 1 |  |  |  |  |
| CC(C)(C)C(=O)OC1=C(c2ccc(Cl)cc2)C(=O)c2ccccc21 [2-(4'-Chlorophenyl)-3-(pivaloyloxy)indone] | 4/20 | 1 | 1 |  |  |  |  |
| Cc1cc(C)c(C2=C(OC(=O)Cl)c3ccccc3C2=O)c(C)c1 [2-(2',4',6'-Trimethylphenyl)-3-(chlorocarbonyloxy)indone] | 13/20 | 5 (100% mortality) | 5 (100% mortality) |  |  |  |  |
| CCC(CC)C(=O)OC1=C(c2cc(C)ccc2C)C(=O)c2ccccc21 [2-(2',5'-Dimethylphenyl)-3-(2-ethylbutanoyloxy)indone] | 4/20 | 5 (100% mortality) | 3 (an approximately 50% mortality) |  |  |  |  |
| CC(C)c1ccccc1C1=C(OC(=O)C(C)(C)C)c2ccccc2C1=O [2-(2'-isopropylphenyl)-3-pivaloyloxyindone] | 4/20 |  | 1 |  |  |  |  |
| Cc1cccc(C)c1C(=O)OC1=C(c2c(Cl)cccc2Cl)C(=O)c2ccccc21 [3-(2,6-Dimethylbenzoyloxy)-2-(2',6'-dichlorophenyl)indone] | 4/20 | 1 | 1 |  |  |  | About 20% |
| Cc1cc(C)c(C2=C(OC(=O)Oc3ccc(Cl)cc3)c3ccccc3C2=O)c(C)c1 [2-(2',4',6'-Trimethylphenyl)-3-(4-chlorophenyloxycarbonyloxy)indone] | 19/20 | 5 (100% mortality) | 5 (100% mortality) |  |  |  |  |
| Cc1cc(C)c(C2=C(OC(=O)N(C)C)c3ccccc3C2=O)c(C)c1 [2-(2',4',6'-Trimethylphenyl)-3-(dimethylcarbamoyloxy)indone] | 14/20 | 5 (100% mortality) | 3 (an approximately 50% mortality) |  |  |  |  |
| Cc1ccc(C(=O)OC2=C(c3c(C)cc(C)cc3C)C(=O)c3ccccc32)cc1 [3-(4-Methylbenzoyloxy)-2-(2',4',6'-trimethylphenyl)indone] |  | 5 (100% mortality) | 5 (100% mortality) |  |  | 22/30 |  |
| 3-(Acetoxy)-4(7)-methyl-2-(2',6'-dichlorophenyl)indone |  | 5 (100% mortality) | 5 (100% mortality) | 37/40 |  |  |  |
| Cc1cc(C)c(C2=C(OC(=O)c3ccc(Cl)cc3Cl)c3ccccc3C2=O)c(C)c1 [3-(2,4-Dichlorobenzoyloxy)-2-(2',4',6'-trimethylphenyl)indone] |  | 5 (100% mortality) | 5 (100% mortality) | 32/40 |  |  |  |
| CCC(CC)C(=O)OC1=C(c2ccc(C(C)C)cc2)C(=O)c2ccccc21 [3-(2-ethylbutanoyloxy)-2-(4'-isopropylphenyl)indone] | 4/20 | 1 | 1 |  |  |  |  |
| Cc1cc(C)c(C2=C(OC(=O)c3cccc([N+](=O)[O-])c3)c3ccccc3C2=O)c(C)c1 [3-(3-Nitrobenzoyloxy)-2-(2',4',6'-trimethylphenyl)indone] |  | 5 (100% mortality) | 5 (100% mortality) |  |  | 28/30 |  |
